This note sets out measurements from patent US11198713B2, “Agents modulating beta-catenin functions and methods thereof” (FOG PHARMACEUTICALS, INC., priority 2017, dated 2021).

Numbered stars: 1 amine (or outer) side, 2 acyl side, 3 side chain; on linkers, the order of the positions; unused ones are H or OH. Bridge positions count the residues as written; N and C are the ends. Square brackets hold non-standard residues; d marks the D form. Peptide text beside a SMILES is read from it. X12 = CN(CC=[*:3])CCC[C@@](C)(N[*:1])C(=O)[*:2]; X11 = CN(CC=[*:3])C[C@](C)(N[*:1])C(=O)[*:2]; X6 = CN(CC=[*:3])CC[C@](C)(N[*:1])C(=O)[*:2]; X13 = C[C@@](CCCCC=[*:3])(N[*:1])C(=O)[*:2]; X5 = C[C@](CCCCCC=[*:3])(N[*:1])C(=O)[*:2]; X7 = C[C@](CCCCC=[*:3])(N[*:1])C(=O)[*:2]; S5 = C=CCCC[C@](C)(N)C(=O)O A value given as a limit tells only on which side of the number the result lay.

The EC50 is the concentration that produces a half-maximal response.

This experiment has as its target T1, full-length beta-catenin (Axin site) (Homo sapiens, UniProt P35222).
T1 construct: 15 nM full-length beta-catenin, 20 nM FITC labeled peptide in buffer
T1 sequence (P35222 1-781): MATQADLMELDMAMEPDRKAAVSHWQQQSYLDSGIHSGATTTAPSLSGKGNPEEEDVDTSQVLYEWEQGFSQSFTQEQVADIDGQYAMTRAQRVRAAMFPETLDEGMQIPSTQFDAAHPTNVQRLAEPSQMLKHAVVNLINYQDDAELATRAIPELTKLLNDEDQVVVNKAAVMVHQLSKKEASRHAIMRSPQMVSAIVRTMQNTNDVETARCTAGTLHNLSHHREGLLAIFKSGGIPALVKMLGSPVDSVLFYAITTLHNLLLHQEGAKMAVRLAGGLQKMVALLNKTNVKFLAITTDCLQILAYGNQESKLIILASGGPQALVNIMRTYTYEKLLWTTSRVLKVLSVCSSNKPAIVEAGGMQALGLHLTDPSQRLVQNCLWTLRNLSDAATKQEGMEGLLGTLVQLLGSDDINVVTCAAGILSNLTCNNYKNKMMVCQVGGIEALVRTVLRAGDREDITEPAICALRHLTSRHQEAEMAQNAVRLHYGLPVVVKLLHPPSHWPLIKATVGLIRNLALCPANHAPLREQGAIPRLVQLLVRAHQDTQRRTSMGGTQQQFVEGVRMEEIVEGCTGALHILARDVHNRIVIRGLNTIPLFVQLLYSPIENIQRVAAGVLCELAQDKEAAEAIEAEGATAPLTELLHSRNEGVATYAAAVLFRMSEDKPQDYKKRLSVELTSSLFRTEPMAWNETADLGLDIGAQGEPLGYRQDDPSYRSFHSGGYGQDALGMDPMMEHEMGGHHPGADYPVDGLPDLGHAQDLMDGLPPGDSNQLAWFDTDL
Briefly: Competition fluorescence polarization assay (Axin site probe). To be noted: competition fluorescence polarization, Table 2; read-out: in vitro FP EC50. Type of experiment: binding. An outline of the steps: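 Competition FP: 15 nM full-length β-catenin pre-incubated 5 min with 20 nM FITC-labelled stapled Axin-site peptide, then titrated peptide added (3-fold series from 5 μM) for 15 min in the dark. Buffer 50 mM Tris pH 8.0, 250 mM NaCl, 2% glycerol, 0.5 mM EDTA; duplicate reads.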

Consider `CC[C@H](C)[C@@H]1NC(=O)[C@](C)(NC(=O)[C@H](C)NC(C)=O)CCCCCCC=CCOC(=O)N2CC[C@@](C(=O)N[C@@H](CCCNC(=N)N)C(=O)N[C@H](C(=O)N[C@@H](Cc3c[nH]c4ccccc34)C(N)=O)C(C)C)(C2)NC(=O)[C@H](C)NC(=O)[C@H](Cc2c[nH]cn2)NC(=O)[C@H](C)NC(=O)[C@H](CC(=O)O)NC(=O)[C@H](CC(C)C)NC1=O` [FP0409c, Ac-A-R8-I-L-D-A-H-A-MB-R-V-W-NH2], for which the EC50 was over 5 µM.

In the case of `CC[C@H](C)[C@@H]1NC(=O)[C@H](Cc2c[nH]cn2)NC(=O)[C@H](C)NC(=O)[C@H](CC(=O)O)NC(=O)[C@H](CC(C)C)NC(=O)[C@H]([C@@H](C)CC)NC(=O)[C@](C)(NC(=O)[C@H](C)NC(C)=O)CCCCCCC=CCOC(=O)N2CC[C@@](C(=O)N[C@@H](C)C(=O)N[C@H](C(=O)N[C@@H](Cc3c[nH]c4ccccc34)C(N)=O)C(C)C)(C2)NC1=O` [FP0410c, Ac-A-R8-I-L-D-A-H-I-MB-A-V-W-NH2], the EC50 lay within 0.1 to 0.5 µM.

Regarding `CC[C@H](C)[C@@H]1NC(=O)[C@H](Cc2c[nH]cn2)NC(=O)[C@H](C)NC(=O)[C@H](CC(=O)O)NC(=O)[C@H](CC(C)C)NC(=O)[C@H]([C@@H](C)CC)NC(=O)[C@](C)(NC(=O)[C@H](C)NC(C)=O)CCCCCC=CCN(C)C[C@@](C)(C(=O)N[C@@H](CCCNC(=N)N)C(=O)N[C@H](C(=O)N[C@@H](Cc2c[nH]c3ccccc23)C(N)=O)C(C)C)NC1=O` [FP0495a, Ac-A-R7-I-L-D-A-H-I-MD-R-V-W-NH2] (Ac-A[X5]ILDAHI[X11]RVW-NH2; staple 2-9), the EC50 lay in the range of 0.5 to 5 µM.

For the compound `CC[C@H](C)[C@@H]1NC(=O)[C@H](Cc2c[nH]cn2)NC(=O)[C@H](C)NC(=O)[C@H](CC(=O)O)NC(=O)[C@H](CC(C)C)NC(=O)[C@H]([C@@H](C)CC)NC(=O)[C@](C)(NC(=O)[C@H](C)NC(C)=O)CCCCCC=CCOC(=O)N(C)C[C@@](C)(C(=O)N[C@@H](CCCNC(=N)N)C(=O)N[C@H](C(=O)N[C@@H](Cc2c[nH]c3ccccc23)C(N)=O)C(C)C)NC1=O` [FP0495c, Ac-A-R7-I-L-D-A-H-I-MD-R-V-W-NH2], the EC50 was in the range of 0.1 to 0.5 µM.

As for `CC[C@H](C)[C@@H]1NC(=O)[C@H](Cc2c[nH]cn2)NC(=O)[C@H](C)NC(=O)[C@H](CC(=O)O)NC(=O)[C@H](CC(C)C)NC(=O)[C@H]([C@@H](C)CC)NC(=O)[C@](C)(NC(=O)[C@H](C)NC(C)=O)CCCC=CCOC(=O)N(C)CC[C@@](C)(C(=O)N[C@@H](CCCNC(=N)N)C(=O)N[C@H](C(=O)N[C@@H](Cc2c[nH]c3ccccc23)C(N)=O)C(C)C)NC1=O` [FP0501c, Ac-A-R5-I-L-D-A-H-I-MF-R-V-W-NH2], the EC50 was in the range of 0.1 to 0.5 µM.

On to `CC[C@H](C)[C@@H]1NC(=O)[C@H](Cc2c[nH]cn2)NC(=O)[C@H](C)NC(=O)[C@H](CC(=O)O)NC(=O)[C@H](CC(C)C)NC(=O)[C@H]([C@@H](C)CC)NC(=O)[C@](C)(NC(=O)[C@H](C)NC(C)=O)CCCCC=CCN(C)CC[C@@](C)(C(=O)N[C@@H](CCCNC(=N)N)C(=O)N[C@H](C(=O)N[C@@H](Cc2c[nH]c3ccccc23)C(N)=O)C(C)C)NC1=O` [FP0502a, Ac-A-R6-I-L-D-A-H-I-MF-R-V-W-NH2] (Ac-A[X7]ILDAHI[X6]RVW-NH2; staple 2-9), for which the EC50 is 0.5 to 5 µM.

With `CC[C@H](C)[C@@H]1NC(=O)[C@H](Cc2c[nH]cn2)NC(=O)[C@H](C)NC(=O)[C@H](CC(=O)O)NC(=O)[C@H](CC(C)C)NC(=O)[C@H]([C@@H](C)CC)NC(=O)[C@](C)(NC(=O)[C@H](C)NC(C)=O)CCCN(C)CC=CCCC[C@@](C)(C(=O)N[C@@H](CCCNC(=N)N)C(=O)N[C@H](C(=O)N[C@@H](Cc2c[nH]c3ccccc23)C(N)=O)C(C)C)NC1=O` [FP0506a, Ac-A-MI-I-L-D-A-H-I-S5-R-V-W-NH2] (Ac-A[X12]ILDAHI[S5]RVW-NH2; staple 2-9), the EC50 was 0.5 to 5 µM.

With `CC[C@H](C)[C@@H]1NC(=O)[C@H](Cc2c[nH]cn2)NC(=O)[C@H](C)NC(=O)[C@H](CC(=O)O)NC(=O)[C@H](CC(C)C)NC(=O)[C@H]([C@@H](C)CC)NC(=O)[C@](C)(NC(=O)[C@H](C)NC(C)=O)CCCN(C)CC=CCCCC[C@@](C)(C(=O)N[C@@H](CCCNC(=N)N)C(=O)N[C@H](C(=O)N[C@@H](Cc2c[nH]c3ccccc23)C(N)=O)C(C)C)NC1=O` [FP0507a, Ac-A-MI-I-L-D-A-H-I-S6-R-V-W-NH2] (Ac-A[X12]ILDAHI[X13]RVW-NH2; staple 2-9), the concentration giving a half-maximal response (EC50) was under 0.1 µM.

Consider `CC[C@H](C)[C@@H]1NC(=O)[C@H](Cc2c[nH]cn2)NC(=O)[C@H](C)NC(=O)[C@H](CC(=O)O)NC(=O)[C@H](CC(C)C)NC(=O)[C@H]([C@@H](C)CC)NC(=O)[C@](C)(NC(=O)[C@H](C)NC(C)=O)CCCN(C)C(=O)OCC=CCCCC[C@@](C)(C(=O)N[C@@H](CCCNC(=N)N)C(=O)N[C@H](C(=O)N[C@@H](Cc2c[nH]c3ccccc23)C(N)=O)C(C)C)NC1=O` [FP0507c, Ac-A-MI-I-L-D-A-H-I-S6-R-V-W-NH2], for which the EC50 lay within 0.5 to 5 µM.

Turning to `CC[C@H](C)[C@@H]1NC(=O)[C@H](Cc2c[nH]cn2)NC(=O)[C@H](C)NC(=O)[C@H](CC(=O)O)NC(=O)[C@H](CC(C)C)NC(=O)[C@H]([C@@H](C)CC)NC(=O)[C@](C)(NC(=O)[C@H](C)NC(C)=O)CCCCCC=CCOC(=O)N2CC(C(=O)N[C@@H](CCCNC(=N)N)C(=O)N[C@H](C(=O)N[C@@H](Cc3c[nH]c4ccccc34)C(N)=O)C(C)C)(C2)NC1=O` [FP0516c, Ac-A-R7-I-L-D-A-H-I-MA-R-V-W-NH2], the EC50 was 0.1 to 0.5 µM.

For `CC[C@H](C)[C@@H]1NC(=O)[C@H](Cc2cccs2)NC(=O)[C@H](C)NC(=O)[C@H](CC(=O)O)NC(=O)[C@H](CC(C)C)NC(=O)[C@H]([C@@H](C)CC)NC(=O)[C@](C)(NC(=O)[C@H](C)NC(C)=O)CCCCCCC=CCOC(=O)N2CC[C@@](C(=O)N[C@@H](CCCNC(=N)N)C(=O)N[C@H](C(=O)N[C@@H](Cc3c[nH]c4ccccc34)C(N)=O)C(C)C)(C2)NC1=O` [FP0536c, Ac-A-R8-I-L-D-A-thi-I-MB-R-V-W-NH2], the EC50 is over 5 µM.

With `CC[C@H](C)[C@@H]1NC(=O)[C@H](Cc2cccnc2)NC(=O)[C@H](C)NC(=O)[C@H](CC(=O)O)NC(=O)[C@H](CC(C)C)NC(=O)[C@H]([C@@H](C)CC)NC(=O)[C@](C)(NC(=O)[C@H](C)NC(C)=O)CCCCCCC=CCOC(=O)N2CC[C@@](C(=O)N[C@@H](CCCNC(=N)N)C(=O)N[C@H](C(=O)N[C@@H](Cc3c[nH]c4ccccc34)C(N)=O)C(C)C)(C2)NC1=O` [FP0537c, Ac-A-R8-I-L-D-A-3pyr-I-MB-R-V-W-NH2], the EC50 is over 5 µM.

With `CC[C@H](C)[C@@H]1NC(=O)[C@H](Cc2ccncc2)NC(=O)[C@H](C)NC(=O)[C@H](CC(=O)O)NC(=O)[C@H](CC(C)C)NC(=O)[C@H]([C@@H](C)CC)NC(=O)[C@](C)(NC(=O)[C@H](C)NC(C)=O)CCCCCCC=CCOC(=O)N2CC[C@@](C(=O)N[C@@H](CCCNC(=N)N)C(=O)N[C@H](C(=O)N[C@@H](Cc3c[nH]c4ccccc34)C(N)=O)C(C)C)(C2)NC1=O` [FP0538c, Ac-A-R8-I-L-D-A-4pyr-I-MB-R-V-W-NH2], the EC50 lay within 0.5 to 5 µM.

Turning to `CC[C@H](C)[C@@H]1NC(=O)[C@H](Cc2ccccc2)NC(=O)[C@H](C)NC(=O)[C@H](CC(=O)O)NC(=O)[C@H](CC(C)C)NC(=O)[C@H]([C@@H](C)CC)NC(=O)[C@](C)(NC(=O)[C@H](C)NC(C)=O)CCCCCCC=CCOC(=O)N2CC[C@@](C(=O)N[C@@H](CCCNC(=N)N)C(=O)N[C@H](C(=O)N[C@@H](Cc3c[nH]c4ccccc34)C(N)=O)C(C)C)(C2)NC1=O` [FP0540c, Ac-A-R8-I-L-D-A-F-I-MB-R-V-W-NH2], the concentration for a half-maximal effect (EC50) is over 5 µM.

On to `CC[C@H](C)[C@@H]1NC(=O)[C@H](Cc2ccco2)NC(=O)[C@H](C)NC(=O)[C@H](CC(=O)O)NC(=O)[C@H](CC(C)C)NC(=O)[C@H]([C@@H](C)CC)NC(=O)[C@](C)(NC(=O)[C@H](C)NC(C)=O)CCCCCCC=CCOC(=O)N2CC[C@@](C(=O)N[C@@H](CCCNC(=N)N)C(=O)N[C@H](C(=O)N[C@@H](Cc3c[nH]c4ccccc34)C(N)=O)C(C)C)(C2)NC1=O` [FP0541c, Ac-A-R8-I-L-D-A-fur-I-MB-R-V-W-NH2], for which the EC50 was over 5 µM.

Regarding `CC[C@H](C)[C@@H]1NC(=O)[C@H](Cc2c[nH]cn2)NC(=O)[C@H](C)NC(=O)[C@H](CC(=O)O)NC(=O)[C@H](CC(C)C)NC(=O)[C@H]([C@@H](C)CC)NC(=O)[C@](C)(NC(=O)[C@H](C)NC(C)=O)CCCCCCC=CCOC(=O)N2CC[C@@](C(=O)N[C@@H](CO)C(=O)N[C@H](C(=O)N[C@@H](Cc3c[nH]c4ccccc34)C(N)=O)C(C)C)(C2)NC1=O` [FP0542c, Ac-A-R8-I-L-D-A-H-I-MB-S-V-W-NH2], the EC50 is 0.5 to 5 µM.
